Patent US9676715B2, “Bis-indolic derivatives, a process for preparing the same and their uses as a drug” (UNIVERSITE JOSEPH FOURIER, priority 2011, dated 2017)
Converted amounts (≈) assume the structure as drawn. Read-outs that look alike come from different tables or passages of the source.

How the values were obtained:
[1] = tested on: S. aureus ATCC 106414 (VISA); assay: MIC, microdilution method (9.1); format: cell-based, Staphylococcus aureus; conditions: Staphylococcus aureus, read after 18 h, read-out: MIC
How it was run: (§1)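 CLSI microdilution (M07-A8); MH broth; 5×10^5 CFU/ml final; 2-fold series 0.50-128 mg/L final; 37° C., ambient air.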

S. aureus ATCC 25923 = assay: MIC, microdilution method (9.1); format: cell-based, Staphylococcus aureus; conditions: Staphylococcus aureus, ATCC25923, read after 18 h, read-out: MIC
How it was run: as §1

S. aureus ATCC 29213 = assay: MIC, microdilution method (9.1); format: cell-based, Staphylococcus aureus; conditions: Staphylococcus aureus, ATCC29213, read after 18 h, read-out: MIC
How it was run: as §1

[2] = tested on: S. aureus ATCC 33592 (MRSA); assay: MIC, microdilution method (9.1); format: cell-based, Staphylococcus aureus; conditions: Staphylococcus aureus, read after 18 h, read-out: MIC
How it was run: as §1

S. aureus ATCC 6538 = assay: MIC, microdilution method (9.1); format: cell-based, Staphylococcus aureus; conditions: Staphylococcus aureus, ATCC6538, read after 18 h, read-out: MIC
How it was run: as §1

S. aureus ATCC 9144 = assay: MIC, microdilution method (9.1); format: cell-based, Staphylococcus aureus; conditions: Staphylococcus aureus, ATCC9144, read after 18 h, read-out: MIC
How it was run: as §1

S. aureus CIP 103428 = assay: MIC, microdilution method (9.1); format: cell-based, Staphylococcus aureus; conditions: Staphylococcus aureus, CIP103428, read after 18 h, read-out: MIC
How it was run: as §1

[3] = tested on: S. aureus CIP 65.25 (MRSA); assay: MIC, microdilution method (9.1); format: cell-based, Staphylococcus aureus; conditions: Staphylococcus aureus, read after 18 h, read-out: MIC
How it was run: as §1

S. aureus CIP 65.6 = assay: MIC, microdilution method (9.1); format: cell-based, Staphylococcus aureus; conditions: Staphylococcus aureus, CIP65, read after 18 h, read-out: MIC
How it was run: as §1

S. aureus SA-1199B = assay: MIC, microdilution method (9.1); format: cell-based, Staphylococcus aureus; conditions: Staphylococcus aureus, SA1199B, 18 h
How it was run: as §1

[4] = tested on: S. epidermidis ATCC 12228; assay: MIC, microdilution method (9.1); format: cell-based, Staphylococcus epidermidis; conditions: Staphylococcus epidermidis, ATCC12228, read after 18 h, read-out: MIC
How it was run: as §1

[5] = tested on: S. epidermidis CIP 103627; assay: MIC, microdilution method (9.1); format: cell-based, Staphylococcus epidermidis; conditions: Staphylococcus epidermidis, CIP103627, read after 18 h, read-out: MIC
How it was run: as §1

S. epidermidis CIP 81.55 = assay: MIC, microdilution method (9.1); format: cell-based, Staphylococcus epidermidis; conditions: Staphylococcus epidermidis, CIP81, read after 18 h, read-out: MIC
How it was run: as §1

S. pneumoniae ATCC 6303 = assay: MIC, microdilution method (9.1); format: cell-based, Streptococcus pneumoniae; conditions: Streptococcus pneumoniae, ATCC6303, 10% sheep blood, 5% CO2, 18 h, read-out: MIC
How it was run: (§2)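 Standard CLSI broth microdilution. Test range 0.50-128 mg/L (final), doubling steps.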

[6] = tested on: S. agalactiae (group B) ATCC 12400; assay: MIC, microdilution method (9.1); format: cell-based, Streptococcus agalactiae; conditions: Streptococcus agalactiae, ATCC12400, 18 h, read-out: MIC
How it was run: as §1

[7] = tested on: S. pyogenes (group A) CIP 104226; assay: MIC, microdilution method (9.1); format: cell-based, Streptococcus pyogenes; conditions: Streptococcus pyogenes, CIP104226, 18 h, read-out: MIC
How it was run: as §1

S. mitis CIP 103335 = assay: MIC, microdilution method (9.1); format: cell-based, Streptococcus mitis; conditions: Streptococcus mitis, CIP103335, 18 h, read-out: MIC
How it was run: as §1

E. faecium CIP 54.32 = assay: MIC, microdilution method (9.1); format: cell-based, Enterococcus faecium; conditions: Enterococcus faecium, CIP54, 18 h, read-out: MIC
How it was run: as §1

E. faecalis ATCC 29212 = assay: MIC, microdilution method (9.1); format: cell-based, Enterococcus faecalis; conditions: Enterococcus faecalis, ATCC29212, 18 h, read-out: MIC
How it was run: as §1

[8] = tested on: Acinetobacter baumanii ATCC 19606; assay: MIC, microdilution method (9.1); format: cell-based; conditions: Acinetobacter baumannii, ATCC19606, 18 h, read-out: MIC
How it was run: as §1

[9] = tested on: Bacillus subtilis CIP 5262; assay: MIC, microdilution method (9.1); format: cell-based; conditions: CIP5262, 18 h, read-out: MIC
How it was run: as §1

[10] = tested on: Enterobacter cloacae ATCC13047; assay: MIC, microdilution method (9.1); format: cell-based; conditions: 18 h
How it was run: as §1

[11] = tested on: Escherichia coli ATCC 25922; assay: MIC, microdilution method (9.1); format: cell-based; conditions: ATCC25922, 18 h
How it was run: as §1

[12] = tested on: Haemophilus influenzae ATCC 49766; assay: MIC, microdilution method (9.1); format: cell-based
How it was run: as §2

[13] = tested on: Klebsiella pneumoniae API ATCC 35657; assay: MIC, microdilution method (9.1); format: cell-based; conditions: ATCC35657, 18 h, read-out: MIC
How it was run: as §1

[14] = tested on: Listeria innocua CIP 80.11; assay: MIC, microdilution method (9.1); format: cell-based; conditions: CIP80, 18 h, read-out: MIC
How it was run: as §1

[15] = tested on: Pseudomonas aeruginosa CIP 5933; assay: MIC, microdilution method (9.1); format: cell-based; conditions: CIP5933, 18 h, read-out: MIC
How it was run: as §1

S. pneumoniae ATCC 49619 = assay: MIC, microdilution method (9.1); format: cell-based; conditions: Streptococcus pneumoniae, ATCC49619, 10% sheep blood, 5% CO2, 18 h
How it was run: as §2

[16] = tested on: Serratia marcescens CIP 103551; assay: MIC, microdilution method (9.1); format: cell-based; conditions: CIP103551, 18 h
How it was run: as §1

[17] = tested on: 29 bacterial strains belonging to 17 different species; assay: MIC determination, overall statements on the bacterial panel; format: cell-based; conditions: summary of MIC results
Experimental: The microdilution method recommended by the Clinical and Laboratory Standard Institute [M07-A8, Vol. 29, No. 2] was used. The activity of indolic compounds was tested against 29 bacterial strains belonging to 17 different species and 12 different genera (Staphylococcus, Streptococcus, Enterococcus, Listeria, Bacillus, Haemophilus, Escherichia, Klebsiella, Enterobacter, Serratia, Pseudomonas, and Acinetobacter). Bacterial inocula were prepared in Mueller Hinton broth (MH2, bioMérieux, Marcy L'Etoile, France), supplemented with 10% sheep blood for fastidious species (i.e., Streptococcus pneumoniae and Haemophilus influenzae). They were dispensed in 96 well microtiter plates (5×10^5 CFU/ml of final inoculum). Indolic compounds were added to the wells as to obtain two-fold serial concentrations (0.50-128 mg/L of final concentrations). Plates were incubated at 37° C. in ambient air, or at 37° C. in 5% CO2 enriched atmosphere for fastidious species. […] Drug-free cultures served as growth controls. Cultures receiving gentamicin, ciprofloxacin or cefotaxime served as positive controls.

[18] = tested on: HCT116 (human colon tumor); assay: In vitro cytotoxicity; format: cell-based; conditions: HCT-116, HCT116, from 100 μM to 0.005 μM in DMSO, duplicate
[19] = ATCC49766, Haemophilus influenzae ATCC 49766, 10% sheep blood, 5% CO2, 18 h, read-out: MIC

Row | Structure (SMILES) | MIC [1] [µg/mL] | MIC (S. aureus ATCC 25923) [µg/mL] | MIC (S. aureus ATCC 29213) [µg/mL] | MIC [2] [µg/mL] | MIC (S. aureus ATCC 6538) [µg/mL] | MIC (S. aureus ATCC 9144) [µg/mL] | MIC (S. aureus CIP 103428) [µg/mL] | MIC [3] [µg/mL] | MIC (S. aureus CIP 65.6) [µg/mL] | MIC (S. aureus SA-1199B) [µg/mL] | MIC [4] [µg/mL] | MIC [5] [µg/mL] | MIC (S. epidermidis CIP 81.55) [µg/mL] | MIC (S. pneumoniae ATCC 6303) [µg/mL] | MIC [6] [µg/mL] | MIC [7] [µg/mL] | MIC (S. mitis CIP 103335) [µg/mL] | MIC (E. faecium CIP 54.32) [µg/mL] | MIC (E. faecalis ATCC 29212) [µg/mL] | MIC [8] [µg/mL] | other results
1 | CC(C)(C)OC(=O)NCC(NC(=O)c1ccccc1)c1c[nH]c2ccc(Br)cc12 (centres unmarked) [Compound 8, t-Butyl (2-benzamido-2-(5-bromo-1H-indol-3-yl)ethyl) carbamate] | > 128 | > 128 | > 128 | > 128 | > 128 | > 128 | > 128 | > 128 | > 128 | > 128 | > 128 | > 128 | > 128 | > 128 | > 128 | > 128 | > 128 | > 128 | > 128 | > 128 | MIC [9]: > 128 µg/mL; MIC [10]: > 128 µg/mL; MIC [11]: > 128 µg/mL; MIC [12, 19]: > 128 µg/mL; MIC [13]: > 128 µg/mL; MIC [14]: > 128 µg/mL; MIC [15]: > 128 µg/mL; MIC (S. pneumoniae ATCC 49619): > 128 µg/mL; MIC [16]: > 128 µg/mL; intrinsic antibacterial activity (in words) [17]: lack of intrinsic antibacterial activity; IC50 ([18]; first value): 6.14 µM; IC50 ([18]; second value): 7.33 µM
2 | CC(C)(C)OC(=O)NCC(NC(=O)c1cccnc1)c1c[nH]c2ccc(Br)cc12 (centres unmarked) [Compound 10, tert-Butyl (2-(5-bromo-1H-indol-3-yl)-2-(nicotinamido)ethyl) carbamate] | > 128 | > 128 | 128 (≈ 279 µM) | > 128 | 64 (≈ 139 µM) | > 128 | 64 (≈ 139 µM) | > 128 | > 128 | 64 (≈ 139 µM) | > 128 | > 128 | > 128 | 128 (≈ 279 µM) | 128 (≈ 279 µM) | 128 (≈ 279 µM) | > 128 | > 128 | > 128 | > 128 | MIC [9]: 128 µg/mL (≈ 279 µM); MIC [10]: > 128 µg/mL; MIC [11]: > 128 µg/mL; MIC [12, 19]: > 128 µg/mL; MIC [13]: > 128 µg/mL; MIC [14]: > 128 µg/mL; MIC [15]: > 128 µg/mL; MIC (S. pneumoniae ATCC 49619): 128 µg/mL (≈ 279 µM); MIC [16]: > 128 µg/mL; intrinsic antibacterial activity (in words) [17]: lack of intrinsic antibacterial activity
3 | CC(C)(C)OC(=O)NCC(NC(=O)C(F)(F)F)c1c[nH]c2ccc(Br)cc12 (centres unmarked) [Compound 9, tert-Butyl (2-(5-bromo-1H-indol-3-yl)-2-(2,2,2-trifluoroacetamido)ethyl)carbamate] | 128 (≈ 284 µM) | > 128 | 64 (≈ 142 µM) | 128 (≈ 284 µM) | 128 (≈ 284 µM) | > 128 | 128 (≈ 284 µM) | 128 (≈ 284 µM) | 128 (≈ 284 µM) | 128 (≈ 284 µM) | > 128 | > 128 | > 128 | > 128 | > 128 | > 128 | > 128 | > 128 | > 128 | > 128 | MIC [9]: 128 µg/mL (≈ 284 µM); MIC [10]: > 128 µg/mL; MIC [11]: > 128 µg/mL; MIC ([12]; Haemophilus influenzae, ATCC49766, 18 h): > 128 µg/mL; MIC [13]: > 128 µg/mL; MIC [14]: > 128 µg/mL; MIC [15]: > 128 µg/mL; MIC (S. pneumoniae ATCC 49619): > 128 µg/mL; MIC [16]: > 128 µg/mL; intrinsic antibacterial activity (in words) [17]: lack of intrinsic antibacterial activity
